Measurements: patent publication US11179389B2, “Purine inhibitors of human phosphatidylinositol 3-kinase delta” (Merck Sharp & Dohme Corp., priority 2017, dated 2021)

What was measured:
PI3Kalpha = PI3Kalpha (Homo sapiens (Human), UniProt P42336); test: HTRF PI3K biochemical assay, alpha isoform (for selectivity ratio); conditions: ratio PI3K-alpha IC50 value / PI3K-delta IC50 value
Description: (§1) HTRF PI3K Biochemical Assay to Measure Intrinsic Potency of Compound Inhibitors
(§2) The PI3-Kinase biochemical assays were developed to measure the intrinsic potency and compound dependent inhibition of the alpha, beta, delta, and gamma PI3K isoform enzymes. This assay was developed and further optimized from a kit produced by Upstate (Millipore catalog #33-047) (Millipore Sigma. Billerica Mass., USA) and has been configured for high throughput screening (HTS) and structure-activity relationship (SAR) screening. Briefly, this procedure exploits the exquisite specificity and high affinity binding of enzyme reaction […] phosphatidyl(3,4,5)triphosphate (PIP3) to the GRP1 pleckstrin homology (PH) domain to generate the signal. In the absence of PIP3, an HTRF (Homogeneous Time-Resolved Fluorescence energy transfer) complex is formed consisting of europium (Eu)-labeled anti-GST, GSTtagged GRP1-PH domain, biotin-PIP3 (biotinylated-PIP3) and streptavidin conjugated APC (Allophycocyanin). The native PIP3 produced by PI3-Kinase activity disrupts in a competitive manner the biotin-PIP3 from the pleckstrin homology (PH) domain, resulting in the loss of energy transfer (HTRF complex) and a decrease in the signal. The format of this assay is the same for all 4 isoforms of PI3K; the differences lie in the concentration of enzyme used to achieve robust assay window. The alpha, beta, and delta assays are run at 0.5, 1, and 0.3 nM enzymes and the gamma assay is run at 5 nM enzyme. The ATP concentration is 100 uM in the alpha, beta, and delta assays and 50 uM adenosine triphosphate (ATP) in the gamma assay. All reactions are run at 5 uM PIP2.
(§3) Compounds are serially diluted (3-fold in 100% DMSO) across a 384-well polypropylene source plated from column 3 to column 12 and column 13 to column 22, to yield 10 concentration dose response for each test compound. Columns 1, 2, 23 and 24 contain either only DMSO or pharmacological known control inhibitor. Once titrations are made, 2.5 nL of the compounds on 384 well plates are reformatted and transferred by acoustic dispense in quadruplicates to a 1536 assay plate (Greiner) to assay across all four PI3K isoform enzymes.
(§4) The PI3-Kinase biochemical assay was optimized using the HTRF kit provided by Upstate (Millipore). The assay kit contains six reagents: 1) 4×Reaction Buffer; 2) native PIP2 (substrate); 3) Stop (EDTA); 4) Detection Mix A (Streptavidin-APC); 5) Detection Mix B (Eu-labeled Anti-GST plus GST-tagged PH-domain): 6) Detection Mix C. In addition, the following items were obtained or purchased; PI3Kinase (catalog #'s alpha 14-602, beta 14-603, gamma 14-558 and delta 14-604 from Upstate Biotechnology now EMD Millipore, Mahopac, N.Y., USA), dithiothreitol (Sigma-Aldrich Corp. (St. Louis, Mo., USA) Catalog #D-5545), Adenosine-5′ triphosphate (InVitrogen (Waltham, Mass., USA), Cat#AS001 Å), native PIP3 (PI(3,4,5)P3, diC8, H^+, CELLSIGNALS, INC., (Columbus, Ohio, USA) Cat #907) DMSO ((Sigma-Aldrich Corp. (St. Louis. Mo., USA) Catalog #472301).
(§5) PI3Kinase Reaction Buffer is prepared by dilution the stock 1:4 with de-ionized water. DTT (DL-Dithiothreitol), phosphatidylinositol 4,5-bisphosphate (PIP2) and Biotin-PIP3 were added to 1536 assay plate at a final concentration of 5 mM, […] and 25 nM on the day of use. Enzyme addition and compound pre-incubation are initiated by the addition of 1.25 ul of PI3K (at twice its final concentration) in the 1× reaction buffer to all wells using a BioRaptor™. Plates are incubated at room temperature for 15 minutes. Reactions are initiated by addition of 1.25 ul of 2× substrate solution (PIP2 and ATP in 1× reaction buffer) using BioRaptor™. Plates are incubated in humidified chamber at room temperature for one hour. Reactions are quenched by addition of 0.625 uL of stop solution to all wells using the BioRaptor™. […]

PI3Kdelta = PI3Kdelta (Homo sapiens (Human), UniProt O00329); test: HTRF PI3K biochemical assay, delta isoform; conditions: 0.3 nM enzyme, 100 uM ATP, 5 uM PIP2, form screened per table (Neutral or TFA salt)
Sequence of PI3Kdelta (O00329 whole entry, canonical isoform): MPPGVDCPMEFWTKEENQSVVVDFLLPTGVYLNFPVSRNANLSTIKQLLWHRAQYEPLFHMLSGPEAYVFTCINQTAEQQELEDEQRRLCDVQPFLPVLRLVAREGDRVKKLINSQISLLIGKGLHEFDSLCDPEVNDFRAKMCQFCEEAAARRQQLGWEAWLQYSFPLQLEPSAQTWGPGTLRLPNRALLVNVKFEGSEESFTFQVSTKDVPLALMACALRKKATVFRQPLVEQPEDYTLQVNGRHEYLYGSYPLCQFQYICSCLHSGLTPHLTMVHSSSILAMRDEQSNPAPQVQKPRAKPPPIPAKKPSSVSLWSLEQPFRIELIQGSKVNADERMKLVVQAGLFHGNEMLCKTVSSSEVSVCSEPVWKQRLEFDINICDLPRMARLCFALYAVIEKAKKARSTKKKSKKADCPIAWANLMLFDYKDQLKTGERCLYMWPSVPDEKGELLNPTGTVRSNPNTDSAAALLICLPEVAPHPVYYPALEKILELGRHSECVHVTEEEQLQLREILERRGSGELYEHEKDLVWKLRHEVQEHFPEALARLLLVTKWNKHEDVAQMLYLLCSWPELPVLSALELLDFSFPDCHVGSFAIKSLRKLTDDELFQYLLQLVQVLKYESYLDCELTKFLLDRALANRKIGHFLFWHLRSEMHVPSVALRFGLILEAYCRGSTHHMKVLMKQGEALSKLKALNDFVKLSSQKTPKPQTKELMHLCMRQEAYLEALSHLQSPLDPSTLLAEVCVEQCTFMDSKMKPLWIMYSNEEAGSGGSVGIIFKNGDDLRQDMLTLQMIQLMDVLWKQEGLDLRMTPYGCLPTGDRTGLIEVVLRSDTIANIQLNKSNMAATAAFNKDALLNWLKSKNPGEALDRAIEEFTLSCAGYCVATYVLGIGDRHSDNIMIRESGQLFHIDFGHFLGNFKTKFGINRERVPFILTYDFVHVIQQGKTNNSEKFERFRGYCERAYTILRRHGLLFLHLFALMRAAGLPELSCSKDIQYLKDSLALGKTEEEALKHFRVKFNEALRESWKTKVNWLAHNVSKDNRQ
Sequence of PI3Kdelta (P27986 whole entry partner, canonical isoform): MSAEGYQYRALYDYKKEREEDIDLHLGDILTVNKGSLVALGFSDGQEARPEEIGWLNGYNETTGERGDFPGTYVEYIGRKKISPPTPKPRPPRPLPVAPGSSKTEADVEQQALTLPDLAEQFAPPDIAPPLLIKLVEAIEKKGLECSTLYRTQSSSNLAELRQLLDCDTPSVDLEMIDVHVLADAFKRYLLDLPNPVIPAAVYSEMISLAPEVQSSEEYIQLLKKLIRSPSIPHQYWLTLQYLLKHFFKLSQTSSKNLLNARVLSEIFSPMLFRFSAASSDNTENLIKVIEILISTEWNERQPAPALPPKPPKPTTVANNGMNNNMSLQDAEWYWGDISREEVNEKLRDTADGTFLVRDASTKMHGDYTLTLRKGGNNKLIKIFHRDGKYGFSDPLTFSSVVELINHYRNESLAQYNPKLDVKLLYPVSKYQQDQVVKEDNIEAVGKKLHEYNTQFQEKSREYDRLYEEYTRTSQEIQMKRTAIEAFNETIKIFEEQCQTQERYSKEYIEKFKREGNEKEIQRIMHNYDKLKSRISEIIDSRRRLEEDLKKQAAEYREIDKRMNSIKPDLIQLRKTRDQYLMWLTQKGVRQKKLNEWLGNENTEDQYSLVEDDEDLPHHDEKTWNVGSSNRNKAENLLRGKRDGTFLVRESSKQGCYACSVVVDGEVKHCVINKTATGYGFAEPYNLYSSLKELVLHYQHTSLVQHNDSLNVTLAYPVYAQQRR
Description: as §1, §2, §3, §4, §5

Sequence of PI3Kalpha (P42336 whole entry, canonical isoform): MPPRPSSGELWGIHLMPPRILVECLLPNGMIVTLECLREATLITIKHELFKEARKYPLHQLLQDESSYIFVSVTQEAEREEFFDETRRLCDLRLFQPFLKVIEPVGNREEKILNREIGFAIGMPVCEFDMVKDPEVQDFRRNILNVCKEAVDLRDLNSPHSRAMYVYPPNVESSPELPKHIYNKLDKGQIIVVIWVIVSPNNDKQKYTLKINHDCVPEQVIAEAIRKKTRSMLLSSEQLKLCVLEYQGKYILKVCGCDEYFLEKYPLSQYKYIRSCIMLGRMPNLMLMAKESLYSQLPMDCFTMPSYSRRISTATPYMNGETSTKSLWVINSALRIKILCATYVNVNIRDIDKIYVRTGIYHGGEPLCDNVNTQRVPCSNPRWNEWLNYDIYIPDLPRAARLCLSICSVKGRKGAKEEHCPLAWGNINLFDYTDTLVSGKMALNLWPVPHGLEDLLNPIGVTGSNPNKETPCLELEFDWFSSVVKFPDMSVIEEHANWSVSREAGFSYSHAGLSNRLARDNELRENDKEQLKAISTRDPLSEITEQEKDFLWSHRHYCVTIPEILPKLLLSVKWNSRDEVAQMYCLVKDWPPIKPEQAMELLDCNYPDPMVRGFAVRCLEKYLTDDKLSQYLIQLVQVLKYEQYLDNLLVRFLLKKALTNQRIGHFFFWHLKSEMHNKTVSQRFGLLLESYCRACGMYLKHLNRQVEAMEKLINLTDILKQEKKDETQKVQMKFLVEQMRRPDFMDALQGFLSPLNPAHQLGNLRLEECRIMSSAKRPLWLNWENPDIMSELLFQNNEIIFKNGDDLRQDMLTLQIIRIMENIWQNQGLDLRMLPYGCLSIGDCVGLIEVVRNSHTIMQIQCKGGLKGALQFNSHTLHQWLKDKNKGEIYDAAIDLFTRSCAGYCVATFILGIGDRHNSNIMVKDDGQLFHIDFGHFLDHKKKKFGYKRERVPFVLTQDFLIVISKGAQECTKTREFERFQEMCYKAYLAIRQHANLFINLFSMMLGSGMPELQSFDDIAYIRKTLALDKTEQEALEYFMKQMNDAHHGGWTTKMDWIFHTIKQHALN
Sequence of PI3Kalpha (P27986 whole entry partner, canonical isoform): as the sequence (P27986 whole entry partner, canonical isoform) above

Compound | Selectivity versus PI3Kalpha (PI3Kalpha) | IC50 (PI3Kdelta)
C[C@@H]1CN(c2cnc(C#N)c(-c3cnn(C)c3)n2)CCN1C(=O)N1CCC1 [Compound 1-37, 5-[(3R)-4-(azetidin-1-ylcarbonyl)-3-methylpiperazin-1-yl]-3-(1-methyl-1H-pyrazol-4-yl)pyrazine-2-carbonitrile] | >10 | 0.053 µM
CN(C)CCN1CC2(CCN(c3cnc(C#N)c(-c4cnn(C)c4)n3)CC2)N(CC2CC2)C1=O [Compound 1-4, 5-{1-(cyclopropylmethyl)-3-[2-(dimethylamino)ethyl]-2-oxo-1,3,8-triazaspiro[4.5]dec-8-yl}-3-(1-methyl-1H-pyrazol-4-yl)pyrazine-2-carbonitrile] | >10 | 0.01 µM
COCCN1CC2(CCN(c3cnc(C#N)c(-c4cnn(C)c4)n3)CC2)N(CC2CC2)C1=O [Compound 1-9, 5-[1-(cyclopropylmethyl)-3-(2-methoxyethyl)-2-oxo-1,3,8-triazaspiro[4.5]dec-8-yl]-3-(1-methyl-1H-pyrazol-4-yl)pyrazine-2-carbonitrile] | >10 | 0.018 µM
C[C@@H]1CN(c2nc(-c3cnn(C)c3)cnc2C#N)CCN1C(=O)C1CC1 [Compound 1-13, 3-[(3R)-4-(cyclopropylcarbonyl)-3-methylpiperazin-1-yl]-5-(1-methyl-1H-pyrazol-4-yl)pyrazine-2-carbonitrile] | >10 | 0.19 µM
CCC(=O)N1CCN(c2cnc(C#N)c(-c3cnn(C)c3)n2)C[C@H]1C [Compound 1-30, 5-[(3R)-3-methyl-4-propanoylpiperazin-1-yl]-3-(1-methyl-1H-pyrazol-4-yl)pyrazine-2-carbonitrile] | >10 | 0.15 µM
Cn1cc(-c2nc(N3CCC4(CC3)CNS(=O)(=O)N4CC3CC3)cnc2C#N)cn1 [Compound 1-6, 5-[1-(cyclopropylmethyl)-2,2-dioxido-2-thia-1,3,8-triazaspiro[4.5]dec-8-yl]-3-(1-methyl-1H-pyrazol-4-yl)pyrazine-2-carbonitrile] | >10 | 0.012 µM
Cn1cc(-c2nc(N3CCC4(CC3)CNC(=O)N4CC3CC3)cnc2C#N)cn1 [Compound 1-3, 5-[1-(cyclopropylmethyl)-2-oxo-1,3,8-triazaspiro[4.5]dec-8-yl]-3-(1-methyl-1H-pyrazol-4-yl)pyrazine-2-carbonitrile] | >10 | 0.0097 µM
Cn1cc(-c2nc(N3CCC4(CC3)NC(=O)OC4CC3CC3)cnc2C#N)cn1 (single isomer, unassigned) [Compound 1-7, 5-[4-(cyclopropylmethyl)-2-oxo-3-oxa-1,8-diazaspiro[4.5]dec-8-yl]-3-(1-methyl-1H-pyrazol-4-yl)pyrazine-2-carbonitrile] | >10 | 0.055 µM
CO[C@H]1CCN(C(=O)N2CCN(c3cnc(C#N)c(-c4cnn(C)c4)n3)C[C@H]2C)C1 [Compound 1-35, 5-[(3R)-4-{[(3S)-3-methoxypyrrolidin-1-yl]carbonyl}-3-methylpiperazin-1-yl]-3-(1-methyl-1H-pyrazol-4-yl)pyrazine-2-carbonitrile] | >10 | 0.11 µM
Cn1cc(-c2nc(N3CCC(C)(N4CCCCC4)CC3)cnc2C#N)cn1 [Compound 1-26, 5-(4′-methyl-1,4′-bipiperidin-1′-yl)-3-(1-methyl-1H-pyrazol-4-yl)pyrazine-2-carbonitrile] | >10 | 0.07 µM
Cn1cc(-c2nc(N3CCC4(CCC(=O)N4CC4CC4)CC3)cnc2C#N)cn1 [Compound 1-1, 5-[1-(cyclopropylmethyl)-2-oxo-1,8-diazaspiro[4.5]dec-8-yl]-3-(1-methyl-1H-pyrazol-4-yl)pyrazine-2-carbonitrile] | >10 | 0.0054 µM

Now from value to compound:

Selectivity versus PI3Kalpha (PI3Kalpha) | IC50 (PI3Kdelta) | Compound
>10 | 0.03 µM | CCCN1C(=O)OCC12CCN(c1cnc(C#N)c(-c3cnn(C)c3)n1)CC2 [Compound 1-22, 3-(1-methyl-1H-pyrazol-4-yl)-5-(2-oxo-1-propyl-3-oxa-1,8-diazaspiro[4.5]dec-8-yl)pyrazine-2-carbonitrile]
>10 | 0.0089 µM | C[C@@H]1C[C@H]1C(=O)N1CCN(c2cnc(C#N)c(-c3cnn(C)c3)n2)C[C@H]1C [Compound 1-14, 5-[(3R)-3-methyl-4-{[(1R,2R)-2-methylcyclopropyl]carbonyl}piperazin-1-yl]-3-(1-methyl-1H-pyrazol-4-yl)pyrazine-2-carbonitrile]
>10 | 0.016 µM | [2H]C([2H])([2H])n1cc(-c2nc(N3CCN(C(=O)C4CC4)[C@H](C)C3)cnc2C#N)cn1 [Compound 1-18, 5-[(3R)-4-(cyclopropylcarbonyl)-3-methylpiperazin-1-yl]-3-[1-(~2~H_3_)methyl-1H-pyrazol-4-yl]pyrazine-2-carbonitrile]
>10 | 0.045 µM | Cn1cc(-c2nc(N3CCC4(CC3)COC(=O)N4CC3(C)COC3)cnc2C#N)cn1 [Compound 1-2, 5-{1-[(3-methyloxetan-3-yl)methyl]-2-oxo-3-oxa-1,8-diazaspiro[4.5]dec-8-yl}-3-(1-methyl-1H-pyrazol-4-yl)pyrazine-2-carbonitrile]
>10 | 0.18 µM | C[C@@H]1CN(c2cnc(C#N)c(-c3cnn(C)c3)n2)CCN1C(=O)N1CCCC1 [Compound 1-32, 3-(1-methyl-1H-pyrazol-4-yl)-5-[(3R)-3-methyl-4-(pyrrolidin-1-ylcarbonyl)piperazin-1-yl]pyrazine-2-carbonitrile]
>10 | 0.01 µM | Cn1cc(-c2nc(N3CCC4(CC3)COCC(=O)N4CC3CC3)cnc2C#N)cn1 [Compound 1-24, 5-[1-(cyclopropylmethyl)-2-oxo-4-oxa-1,9-diazaspiro[5.5]undec-9-yl]-3-(1-methyl-1H-pyrazol-4-yl)pyrazine-2-carbonitrile]
>10 | 0.28 µM | C[C@@H]1CN(c2cnc(C#N)c(-c3cnn(C)c3)n2)CCN1C(=O)C1(C)CC1 [Compound 1-31, 5-{(3R)-3-methyl-4-[(1-methylcyclopropyl)carbonyl]piperazin-1-yl}-3-(1-methyl-1H-pyrazol-4-yl)pyrazine-2-carbonitrile]
